Patent US20230227466A1, “SUBSTITUTED THIENOPYRIMIDINES THAT INTERACT WITH THE RAS SUPERFAMILY FOR THE TREATMENT OF CANCERS, INFLAMMATORY DISEASES, RASOPATHIES, AND FIBROTIC DISEASE” (SHY Therapeutics, LLC, priority 2020, published 2023)

Legend:
[1] = test system: Akt phosphorylation in Panc-1 cells; experiment: Western AKT cell-based phosphorylation assay; parameters: species or system human; details: at 10 μM, values in brackets < > are activation %, not inhibition
Procedure: Human Tumor-Derived Pancreatic Cancer Cell Line Panc-1 was Purchased from
(§1) American Type Culture Collection and grown in complete DMEM-High Glucose supplemented with penicillin (100 U/mL), streptomycin (100 μg/mL), and 10% heat-inactivated FBS at 37° C. in a humidified incubator with 5% CO2.
(§2) Method: Cells were plated at 350000 cells/well density in a 12-well plate, allowed 3 hours to adhere to the plate, then starved in the appropriate medium in the presence of 0.5% FBS overnight. The small molecules to be tested were added to the cells in the final concentration of 10 μM in the presence of 0.3% DMSO for 6 hours incubation at 37° C. Next, cells were stimulated with 1.5 ng/ml EGF for 15 minutes then cells were lysed with lysis buffer containing 1% Triton X-100, EDTA, and Halt™ Protease & Phosphatase Inhibitor Cocktail (Thermo Scientific). Protein concentration was assessed by BCA protein assay (Thermo Scientific). Phosphorylation level of Akt was determined by western blot.
(§3) Western blot protocol: Equal amounts of protein (15-50 μg) were separated by SDS-PAGE and transferred to nitrocellulose membranes (Invitrogen by Thermo Fisher Scientific). The membrane was stained with Ponceau S Stain (Boston BioProducts) to verify uniform protein loading. Membranes were blocked with 10% milk and phosphorylation levels of Akt were assessed by incubating overnight at 4° C. with anti-phospho-Akt (Ser473) antibody (Cell Signaling) followed by HRP-conjugated secondary antibody (Jackson Immunoresearch, West Grove, Pa.). Bands were incubated in Amersham ECL Prime Western Blotting Detection Reagent (GE Healthcare) and visualized using the ChemiDoc MP imaging system (Bio-Rad).

[2] = test system: ERK1/2 phosphorylation in Panc-1 cells; experiment: Western ERK1/2 cell-based phosphorylation assay; parameters: species or system human; details: at 10 μM, values in brackets < > are activation %, not inhibition
Procedure: as §1, with “Cell lines: Human tumor-derived pancreatic cancer cell line Panc-1 was purchased from American” for “American”, “Glucose,” for “Glucose”
as §2, with “C. For IC50 value determination, serial dilutions of compounds were added to cells under the same conditions.” for “C.”, “ERK1/2” for “Akt”
as §3, with “ERK1/2” for “Akt”, “anti-phospho-p44/42 (Thr202/Tyr204)” for “anti-phospho-Akt (Ser473)”, “(Bio-Rad). Protocol for Western AKT cell-based phosphorylation assay” for “(Bio-Rad).”

SMILES	% inh of AKT phosphorylation in PANC-1 [1]	% inh of ERK1/2 phosphorylation in PANC-1 [2]
CO[C@H]1CC[C@@H](Nc2nc(-c3nccn3C)nc3sc(-c4ccn(C(C)C)n4)c(C)c23)C1 [Compound 32, 6-(1-Isopropyl-1H-pyrazol-3-yl)-N-((1R,3S)-3-methoxycyclopentyl)-5-methyl-2-(1-methyl-1H-imidazol-2-yl)thieno[2,3-d]pyrimidin-4-amine]	0 (0% inhibition)	D (76-100% inhibition)
COCCNc1nc(-c2nccn2C)nc2sc(-c3ccn(C(C)C)n3)c(C)c12 [Compound 35, 6-(1-Isopropyl-1H-pyrazol-3-yl)-N-(2-methoxyethyl)-5-methyl-2-(1-methyl-1H-imidazol-2-yl)thieno[2,3-d]pyrimidin-4-amine]	0 (0% inhibition)	0 (0% inhibition)
CO[C@H]1CN(c2nc(-c3nccn3C)nc3sc(-c4ccn(C(C)C)n4)c(C)c23)C[C@H]1OC [Compound 39, rac-4-((3S,4R)-3,4-Dimethoxypyrrolidin-1-yl)-6-(1-isopropyl-1H-pyrazol-3-yl)-5-methyl-2-(1-methyl-1H-imidazol-2-yl)thieno[2,3-d]pyrimidine]	<B>	0 (0% inhibition)
CO[C@H]1C[C@@H](Nc2nc(-c3nccn3C)nc3sc(-c4ccn(C(C)C)n4)c(C)c23)C[C@H]1OC [Compound 42, N-((1r,3R,4S)-3,4-Dimethoxycyclopentyl)-6-(1-isopropyl-1H-pyrazol-3-yl)-5-methyl-2-(1-methyl-1H-imidazol-2-yl)thieno[2,3-d]pyrimidin-4-amine]	<D>	B (26-50% inhibition)
CO[C@H]1C[C@H](Nc2nc(-c3nccn3C)nc3sc(-c4ccn(C(C)C)n4)c(C)c23)C[C@H]1OC [Compound 43, N-((1s,3R,4S)-3,4-Dimethoxycyclopentyl)-6-(1-isopropyl-1H-pyrazol-3-yl)-5-methyl-2-(1-methyl-1H-imidazol-2-yl)thieno[2,3-d]pyrimidin-4-amine]	<D>	B (26-50% inhibition)
Cc1c(-c2ccn(C(C)C)n2)sc2nc(-c3nccn3C)nc(NCCc3nnn[nH]3)c12 [Compound 46, N-(2-(1H-Tetrazol-5-yl)ethyl)-6-(1-isopropyl-1H-pyrazol-3-yl)-5-methyl-2-(1-methyl-1H-imidazol-2-yl)thieno[2,3-d]pyrimidin-4-amine]	A (1-25% inhibition)	0 (0% inhibition)
CO[C@H]1C[C@@H](CNc2nc(-c3nccn3C)nc3sc(-c4ccn(C(C)C)n4)c(C)c23)C1 [Compound 47, 6-(1-Isopropyl-1H-pyrazol-3-yl)-N-(((1s,3s)-3-methoxycyclobutyl)methyl)-5-methyl-2-(1-methyl-1H-imidazol-2-yl)thieno[2,3-d]pyrimidin-4-amine]	0 (0% inhibition)	D (76-100% inhibition)
CO[C@H]1C[C@H](CNc2nc(-c3nccn3C)nc3sc(-c4ccn(C(C)C)n4)c(C)c23)C1 [Compound 48, 6-(1-Isopropyl-1H-pyrazol-3-yl)-N-(((1r,3r)-3-methoxycyclobutyl)methyl)-5-methyl-2-(1-methyl-1H-imidazol-2-yl)thieno[2,3-d]pyrimidin-4-amine]	0 (0% inhibition)	D (76-100% inhibition)
CO[C@H]1CCCN(c2nc(-c3nccn3C)nc3sc(-c4ccn(C(C)C)n4)c(C)c23)C1 [Compound 49, (S)-6-(1-Isopropyl-1H-pyrazol-3-yl)-4-(3-methoxypiperidin-1-yl)-5-methyl-2-(1-methyl-1H-imidazol-2-yl)thieno[2,3-d]pyrimidine]	D (76-100% inhibition)	D (76-100% inhibition)
CO[C@@H]1CCCN(c2nc(-c3nccn3C)nc3sc(-c4ccn(C(C)C)n4)c(C)c23)C1 [Compound 50, (R)-6-(1-Isopropyl-1H-pyrazol-3-yl)-4-(3-methoxypiperidin-1-yl)-5-methyl-2-(1-methyl-1H-imidazol-2-yl)thieno[2,3-d]pyrimidine]	D (76-100% inhibition)	D (76-100% inhibition)
Cc1c(-c2ccn(C(C)C)n2)sc2nc(-c3nccn3C)nc(NC[C@@H]3CCC(=O)N3)c12 [Compound 51]	0 (0% inhibition)	0 (0% inhibition)
Cc1c(-c2ccn(C(C)C)n2)sc2nc(-c3nccn3C)nc(NC[C@H]3CCC(=O)N3)c12 [Compound 52, (R)-5-(((6-(1-Isopropyl-1H-pyrazol-3-yl)-5-methyl-2-(1-methyl-1H-imidazol-2-yl)thieno[2,3-d]pyrimidin-4-yl)amino)methyl)pyrrolidin-2-one]	0 (0% inhibition)	0 (0% inhibition)
Cc1c(-c2ccn(C(C)C)n2)sc2nc(-c3nccn3C)nc(NCCc3ncc[nH]3)c12 [Compound 53, N-(2-(1H-Imidazol-2-yl)ethyl)-6-(1-isopropyl-1H-pyrazol-3-yl)-5-methyl-2-(1-methyl-1H-imidazol-2-yl)thieno[2,3-d]pyrimidin-4-amine]	0 (0% inhibition)	0 (0% inhibition)
CO[C@H]1CC[C@H](Nc2nc(-c3nccn3C)nc3sc(-c4ccn(C(C)C)n4)c(C)c23)CC1 [Compound 54]	<A>	D (76-100% inhibition)
CO[C@H]1CC[C@@H](Nc2nc(-c3nccn3C)nc3sc(-c4ccn(C(C)C)n4)c(C)c23)CC1 [Compound 55]	<A>	D (76-100% inhibition)
Cc1c(-c2ccn(C(C)C)n2)sc2nc(-c3nccn3C)nc(NCc3ncc[nH]3)c12 [Compound 57, N-((1H-Imidazol-2-yl)methyl)-6-(1-isopropyl-1H-pyrazol-3-yl)-5-methyl-2-(1-methyl-1H-imidazol-2-yl)thieno[2,3-d]pyrimidin-4-amine]	0 (0% inhibition)	A (1-25% inhibition)
Cc1c(-c2ccn(C(C)C)n2)sc2nc(-c3nccn3C)nc(NCCc3cn(C)cn3)c12 [Compound 58, 6-(1-Isopropyl-1H-pyrazol-3-yl)-5-methyl-2-(1-methyl-1H-imidazol-2-yl)-N-(2-(1-methyl-1H-imidazol-4-yl)ethyl)thieno[2,3-d]pyrimidin-4-amine]	0 (0% inhibition)	A (1-25% inhibition)
Cc1c(-c2ccn(C(C)C)n2)sc2nc(-c3nccn3C)nc(NCc3c[nH]cn3)c12 [Compound 59, N-((1H-Imidazol-4-yl)methyl)-6-(1-isopropyl-1H-pyrazol-3-yl)-5-methyl-2-(1-methyl-1H-imidazol-2-yl)thieno[2,3-d]pyrimidin-4-amine]	0 (0% inhibition)	0 (0% inhibition)
Cc1c(-c2ccn(C(C)C)n2)sc2nc(-c3nccn3C)nc(NCc3n[nH]c(=O)n3C)c12 [Compound 60, 5-(((6-(1-Isopropyl-1H-pyrazol-3-yl)-5-methyl-2-(1-methyl-1H-imidazol-2-yl)thieno[2,3-d]pyrimidin-4-yl)amino)methyl)-4-methyl-2,4-dihydro-3H-1,2,4-triazol-3-one]	0 (0% inhibition)	0 (0% inhibition)
